Measurements: paper PMC3086652 (European journal of immunology, 2010)
Ends that are not written are not given here.

How the values were obtained:
Test in all cases: biochemical
Assay type in all cases: binding
HLA A*6802 = HLA A*6802 (Homo sapiens, UniProt P04439, A269V/D140Y/D185E/E176V/E277Q/E87N/F33Y/G231S/I121R/I166T/I218V/L180W/L300P/L318F/N151K/P208A/P217A/Q86R/R138H/R169H/S129P/T345S/V36M)
HLA A*0203 = HLA A*0203 (Homo sapiens, UniProt P04439, A173T/D140Y/D185E/D98H/E277Q/G131W/G231S/I119V/I121R/I166T/I218V/L180W/L300P/L318F/N151K/N90K/P208A/P217A/Q86G/Q94H/R138H/R169H/T345S)
HLA A*0206 = HLA A*0206 (Homo sapiens, UniProt P04439, D140Y/D185E/D98H/E176V/E277Q/F33Y/G131W/G231S/I119V/I121R/I166T/I218V/L300P/L318F/N151K/N90K/P208A/P217A/Q86G/Q94H/R138H/R169H/T345S)
HLA A*0201 = HLA A*0201 (Homo sapiens, UniProt P04439, D140Y/D185E/D98H/E176V/E277Q/G131W/G231S/I119V/I121R/I166T/I218V/L300P/L318F/N151K/N90K/P208A/P217A/Q86G/Q94H/R138H/R169H/T345S)
HLA A*0202 = HLA A*0202 (Homo sapiens, UniProt P04439, D140Y/D185E/D98H/E176V/E277Q/G131W/G231S/I119L/I121R/I166T/I218V/L180W/L300P/L318F/N151K/N90K/P208A/P217A/Q67R/Q86G/Q94H/R138H/R169H/T345S)

Compound	IC50 (HLA A*6802)	IC50 (HLA A*0203)	IC50 (HLA A*0206)	IC50 (HLA A*0201)	IC50 (HLA A*0202)
CC(C)C[C@H](NC(=O)[C@@H](N)[C@@H](C)O)C(=O)N[C@@H](CC(N)=O)C(=O)N[C@@H](C)C(=O)N[C@@H](Cc1c[nH]c2ccccc12)C(=O)N[C@H](C(=O)N[C@@H](CCCCN)C(=O)N[C@H](C(=O)N[C@H](C(=O)O)C(C)C)C(C)C)C(C)C [TV9, reference compound]	23900 nM	108 nM	1960 nM	701 nM	179 nM
KINAWIKGV [TV9p5]	36800 nM	10 nM	224 nM	536 nM	433 nM
TINAWIKGV [TV9p29]	269 nM	15 nM	2250 nM	1060 nM	706 nM
KINAWIKVV [TV9p6]	> 10000 nM	56 nM	13400 nM	5120 nM	2950 nM
TINAWIKVV [TV9p30]	6220 nM	112 nM	12600 nM	4230 nM	1830 nM
